How the values were obtained:
Assay type in all cases: in vivo
Myzus persicae = Myzus persicae test (cabbage leaves dipped); conditions: 20 ppm
Experimental: (§1) To produce a suitable preparation of active compound, 1 part by weight of active compound is mixed with the stated amounts of solvent and emulsifier, and the concentrate is diluted with emulsifier-containing water to the desired concentration.
Cabbage leaves (Brassica oleracea) which are heavily infested by the green peach aphid (Myzus persicae) are treated by being dipped into the preparation of active compound of the desired concentration.
(§2) After the desired period of time, the kill in % is determined. 100% means that all aphids have been killed; 0% means that none of the aphids have been killed. The determined kill ratios are entered into Colby's formula (see page 39).

Spodoptera exigua = Spodoptera exigua test (cabbage leaves dipped)
Experimental: as §1
Cabbage leaves (Brassica oleracea) are treated by being dipped into the preparation of active compound of the desired concentration and are populated with caterpillars of the beet army worm (Spodoptera exigua) while the leaves are still moist.
(§3) After the desired period of time, the kill in % is determined. 100% means that all caterpillars have been killed; 0% means that none of the caterpillars have been killed. The determined kill ratios are entered into Colby's formula (see page 39).

[1] = system: Phaedon cochleariae larvae; test: Phaedon cochleariae larvae test (cabbage leaves dipped)
Experimental: as §1
Cabbage leaves (Brassica oleracea) are treated by being dipped into the preparation of active compound of the desired concentration and are populated with larvae of the mustard beetle (Phaedon cochleariae) while the leaves are still moist.
After the desired period of time, the kill in % is determined. 100% means that all beetle larvae have been killed; 0% means that none of the beetle larvae have been killed. The determined kill ratios are entered into Colby's formula (see page 39).

Aphis gossypii = Aphis gossypii test (cotton leaves dipped); conditions: 4 ppm
Experimental: as §1
as §2, with “Cotton leaves (Gossypium hirsutum) which are heavily infested by the cotton aphid (Aphis gossypii) are treated by being dipped into the preparation of active compound of the desired concentration. After” for “After”

[2] = system: Plutella xylostella, resistant strain; test: Plutella xylostella test (resistant strain)
Experimental: as §1
Cabbage leaves (Brassica oleracea) are treated by being dipped into the preparation of active compound of the desired concentration and are populated with caterpillars of the diamondback moth (Plutella xylostella, resistant strain) while the leaves are still moist.
as §3

Heliothis armigera = Heliothis armigera test (soybean shoots dipped)
Experimental: as §1
Soybean shoots (Glycine max) are treated by being dipped into the preparation of active compound of the desired concentration and are populated with caterpillars of the cotton bollworm (Heliothis armigera) while the leaves are still moist.
as §3

[3] = system: Plutella xylostella, normally sensitive strain; test: Plutella xylostella test (normally sensitive strain)
Experimental: as §1
Cabbage leaves (Brassica oleracea) are treated by being dipped into the preparation of active compound of the desired concentration and are populated with caterpillars of the diamondback moth (Plutella xylostella, normally sensitive strain) while the leaves are still moist.
as §3

SMILES: CC[S+]([O-])c1c(C#N)nn(-c2c(Cl)cc(C(F)(F)F)cc2Cl)c1N (stereo not drawn) [(2-17) ethiprole, ethiprole, reference compound]
- Kill rate in % after 1d found (Myzus persicae): 50%

SMILES: COC(=O)N(C(=O)N1COC2(C(=O)OC)Cc3cc(Cl)ccc3C2=N1)c1ccc(OC(F)(F)F)cc1 (stereo not drawn) [(2-21) indoxacarb, indoxacarb, reference compound]
- Kill rate in % after 6d found (Spodoptera exigua; 0.16 ppm): 70%
- Kill rate in % after 6d found ([1]; 0.032 ppm): 10%

SMILES: Cc1cc(Cl)cc(C(=O)NC(C)C)c1NC(=O)c1cc(C(F)(F)F)nn1-c1ncccc1Cl [Example I-1-9]
- Kill rate in % after 6d found (Aphis gossypii): 10%
- Kill rate in % after 1d found (Myzus persicae): 0%
- Kill rate in % after 4d found ([2]; 0.00128 ppm): 0%
- Kill rate in % after 6d found ([2]; 0.032 ppm, 6 d): 10%
- Kill rate in % after 6d found (Heliothis armigera; 0.0064 ppm): 20%
- Kill rate in % after 3d found (Heliothis armigera; 0.032 ppm, 3 d): 45%
- Kill rate in % after 6d found (Heliothis armigera; 0.032 ppm): 0%
- Kill rate in % after 6d found (Spodoptera exigua; 0.0064 ppm): 15%
- Kill rate in % after 6d found (Spodoptera exigua; 0.032 ppm): 10%
- Kill rate in % after 6d found ([3]; 0.00128 ppm): 0%
- Kill rate in % after 4d found ([3]; 0.16 ppm, 4 d): 0%
- Kill rate in % after 6d found ([1]; 0.0064 ppm): 0%

SMILES: N#Cc1nn(-c2c(Cl)cc(C(F)(F)F)cc2Cl)c(N)c1[S+]([O-])C(F)(F)F (stereo not drawn) [(2-16) fipronil, fipronil, reference compound]
- Kill rate in % after 6d found (Aphis gossypii): 0%
- Kill rate in % after 4d found ([2]; 0.0064 ppm): 0%
- Kill rate in % after 6d found ([3]; 0.0064 ppm): 15%
